In US7858635B2 (priority 2005, dated 2010):
Where two headings read alike, the source gives them in different places.

Key:
M1 muscarinic receptor = molecular target: T1, M1 muscarinic receptor (Homo sapiens, UniProt P11229); assay: Functional mobilization of intracellular calcium (FLIPR, Fluo-3), M1-CHO cells; format: cell-based; details: for Emax: 100% efficacy is the maximum response obtained with the Carbachol control, read-out: M1 Efficacy
T1 construct: expressed in transfected cells; host or cells: CHO cells (M1-CHO, under zeocin and G418 selection)
T1 sequence (P11229 1-460): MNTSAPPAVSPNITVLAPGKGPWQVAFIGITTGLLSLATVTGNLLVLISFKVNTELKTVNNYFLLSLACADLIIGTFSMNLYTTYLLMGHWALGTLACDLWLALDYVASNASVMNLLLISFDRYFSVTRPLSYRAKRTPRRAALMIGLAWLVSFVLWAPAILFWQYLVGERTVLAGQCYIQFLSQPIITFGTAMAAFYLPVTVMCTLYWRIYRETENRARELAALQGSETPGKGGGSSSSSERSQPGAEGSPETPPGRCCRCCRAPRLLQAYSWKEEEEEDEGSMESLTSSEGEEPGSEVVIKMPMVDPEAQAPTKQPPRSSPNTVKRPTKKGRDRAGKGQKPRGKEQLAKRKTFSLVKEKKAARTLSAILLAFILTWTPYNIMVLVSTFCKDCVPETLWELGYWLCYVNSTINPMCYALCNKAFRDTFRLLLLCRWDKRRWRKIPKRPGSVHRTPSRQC
Experimental: (§1) CHO cells expressing muscarinic receptors (M1 to M5) are grown as monolayers in tissue culture flasks at 37° C. in a humidified atmosphere containing 5% CO2 and passaged every 3-5 days. The growth media is Dulbecco's modified eagles medium (DMEM, Gibco Cat#12430-054), containing 25 mM Hepes and supplemented with Fetal Bovine Serum (Hyclone, cat# SH30071.03), 0.1 mM of MEM non-essential amino acids (GIBCO, Cat# 11140-050), 1 mM MEM Sodium Pyruvate (GIBCO Cat# 11360-070) and 100 units/ml of Penicillin G and 100 μg/ml of Streptomycin (GIBCO Cat# 15140-122). The recombinant muscarinic receptor cell lines are grown under antibiotic pressure with media containing 25 μm/ml zeocin and 500 μg/ml G418 (M1-CHO), 4 μg/ml puromycin, 50 μg/ml zeocin and 2.5 μm/ml blasticidin (M2 and M4-CHO) or 50 μg/ml zeocin and 4 μg/ml puromycin (M3 and M5-CHO).
(§2) Cells are harvested at 80-90% confluence using Versene (GIBCO Cat# 15040-066), collected by centrifugation and seeded 18-24 hrs prior to running the calcium assay at a density of 5,000-10,000 cells/well in […], clear-bottomed 384-well plates (BD Biocoat, poly-D-lysine, Cat#356663). The day of the experiment, the cells are washed with a plate washer (Bioteck Instruments, ELX 405) using bath1 buffer (140-mM NaCl, 4.5-mM KCL, 2-mM CaCl2, 1-mM MgCl2, 10-mM Hepes-Na, 10-mM Glucose, pH 7.4, with NaOH) containing 1 mM Probenecid. Next, the calcium dye Fluo-3 (25 μl/well of Fluo-3 μM at 4 μM, Molecular Probes F-1241, in Bath 1 buffer containing 1 mM Probenecid) is added to the 25 μl of Bath 1 remaining in each well after the plate wash and the dye is loaded at 37° C. in the tissue culture incubator for 60-90 min. The fluorescent dye is removed using the plate washer with Bath 1 containing 1 mM Probenecid, leaving 25 μl/well of this solution after the wash. Alternatively, cells can be loaded with the calcium indicator from Molecular Devices (Calcium 3 Assay Reagents, Cat # R7181) adding 5 μl of a 5× solution dye in Bath 1 containing 1 mM Probenecid (10 ml per dye flask cat# R7182 to generate a solution 20×) to 20 μl of the same buffer. After loading for 60 min, the experiment can be run without having to remove the dye.
(§3) Compounds are prepared at a 2× fold concentration in a 96-well plate (round bottom, Costar Corning cat# 3656), by reconstituting the pre-spotted compounds in bath 1 containing 1 mM probenecid. The final concentration DMSO is 0.5%, and the amount of DMSO is normalized across the assay plate. To determine an agonist action of the compounds on muscarinic receptors, the reconstituted compounds are added (25 μl compound/well) to the cell assay plate (containing 25 μl/well) using the multi-channel robotic system of the FLIPR 3 Instrument (Molecular Devices, Sunnyvale, Calif.). To determine a functional inhibitory action of the compounds on muscarinic receptors, the reconstituted compounds are added (25 μl compound/well) to the assay plate and pre-incubated for 15 min prior to adding 25 μl of Carbachol at 3× the EC80 for each muscarinic subtype. Alternatively, the compounds can be co-applied simultaneously with the agonist. In both assay modes, the fluorescence is recorded for 60 sec (excitation wavelength is […] and emission wavelength 540 nm) using the FLIPR 3 instrument.
(§4) The potency, efficacy and selectivity of the muscarinic compounds were evaluated by screening the compound activity across the whole family (M1 to M5 cells). Compounds were also screened for activity on other proteins such as other GPCRs and ion channels to determine selectivity on M4 receptors.

M4 muscarinic receptor = molecular target: T2, M4 muscarinic receptor (Homo sapiens, UniProt P08173); assay: Functional mobilization of intracellular calcium (FLIPR, Fluo-3), M4-CHO cells; format: cell-based; details: for Emax: 100% efficacy is the maximum response obtained with the Carbachol control, read-out: M4 Efficacy
T2 construct: expressed in transfected cells; host or cells: CHO cells (M4-CHO, under puromycin, zeocin and blasticidin selection)
T2 sequence (P08173 1-479): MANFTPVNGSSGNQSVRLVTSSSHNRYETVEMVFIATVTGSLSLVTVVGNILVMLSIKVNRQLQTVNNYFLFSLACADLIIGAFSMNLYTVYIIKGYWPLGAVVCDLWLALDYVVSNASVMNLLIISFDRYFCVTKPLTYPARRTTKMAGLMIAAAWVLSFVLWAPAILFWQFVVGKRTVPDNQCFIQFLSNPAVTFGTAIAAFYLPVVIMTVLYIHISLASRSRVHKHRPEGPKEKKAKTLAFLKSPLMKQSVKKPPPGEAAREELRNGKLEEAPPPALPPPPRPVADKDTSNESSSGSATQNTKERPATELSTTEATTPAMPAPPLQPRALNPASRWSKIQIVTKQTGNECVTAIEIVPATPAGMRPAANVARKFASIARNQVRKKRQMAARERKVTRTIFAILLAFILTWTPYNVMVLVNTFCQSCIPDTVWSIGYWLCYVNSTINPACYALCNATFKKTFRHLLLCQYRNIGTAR
Experimental: as §1, §2, §3, §4

[1] = compound nos. 1-454, M1-CHO cells, calcium mobilization
[2] = compound nos. 1-454, M4-CHO cells, calcium mobilization

| SMILES | Emax (M1 muscarinic receptor; compound nos. 1-454) [%] | M1 Activity (M1 muscarinic receptor; [1]) | Emax (M4 muscarinic receptor; compound nos. 1-454) [%] | M4 Activity (M4 muscarinic receptor; [2]) | M1 Activity (M1 muscarinic receptor; compound nos. 1-454) | M4 Activity (M4 muscarinic receptor; compound nos. 1-454) | Emax (M1 muscarinic receptor; compound nos. 455-509) [%] | M1 Activity (M1 muscarinic receptor; compounds 455-509) | Emax (M4 muscarinic receptor; compound nos. 455-509) [%] | M4 Activity (M4 muscarinic receptor; compounds 455-509) |
| --- | --- | --- | --- | --- | --- | --- | --- | --- | --- | --- |
| Clc1ccc2c(c1)C1(CCN([C@H]3C[C@@H]4CC[C@H]3C4)CC1)CO2 [compound 181] | 65 to 85 | ++ (activity was measured to be between 0.7 μM and 3.0 μM) | 55 to 70 | + (activity was measured to be greater than or equal to 4.0 μM) |  |  |  |  |  |  |
| CCCOC(=O)N1CCC(N2CCC3(CC2)CN(C(C)=O)c2ccc(C)cc23)CC1 [compound 252] | < 65 | + (activity was measured to be greater than or equal to 3.0 μM) | 55 to 70 | + (activity was measured to be greater than or equal to 4.0 μM) |  |  |  |  |  |  |
| CC(C)OC(=O)N1C2CCC1CC(N1CCC3(CC1)COc1ccc(F)cc13)C2 (stereo not drawn) [compound 320] | 65 to 85 | ++ (activity was measured to be between 0.7 μM and 3.0 μM) | < 55 | + (activity was measured to be greater than or equal to 4.0 μM) |  |  |  |  |  |  |
| CC(C)OC(=O)N1C2CCC1CC(N1CCC3(CC1)CN(C(=O)C1CC1)c1ccc(F)cc13)C2 (stereo not drawn) [compound 345] | < 65 | +++ (activity was measured to be less than or equal to 0.7 μM) | < 55 | ++ (activity was measured to be between 0.1 μM and 4.0 μM) |  |  |  |  |  |  |
| CC=CCOC(=O)N1C2CCC1CC(N1CCC3(CC1)CN(C(=O)N(C)C)c1ccc(F)cc13)C2 (stereo not drawn) [compound 200] | 65 to 85 | ++ (activity was measured to be between 0.7 μM and 3.0 μM) | < 55 | + (activity was measured to be greater than or equal to 4.0 μM) |  |  |  |  |  |  |
| CCOC(=O)N1CCC(N2CCC3(CC2)CN(C(=O)c2ccc(F)cc2)c2ccc(F)cc23)CC1 [compound 77] | 65 to 85 | +++ (activity was measured to be less than or equal to 0.7 μM) | < 55 | ++ (activity was measured to be between 0.1 μM and 4.0 μM) |  |  |  |  |  |  |
| Fc1ccc2c(c1)C1(CCN(C[C@H]3C[C@H]4C=C[C@H]3C4)CC1)CO2 [compound 376] | 65 to 85 |  | 55 to 70 |  | +++ (activity was measured to be less than or equal to 0.7 μM) | + (activity was measured to be greater than or equal to 4.0 μM) |  |  |  |  |
| CC(=O)N[C@H]1CC2(CCN(C3CCC(c4ccccc4)CC3)CC2)c2ccccc21 (stereo partly drawn) [compound 273] | > 85 | +++ (activity was measured to be less than or equal to 0.7 μM) | > 70 | ++ (activity was measured to be between 0.1 μM and 4.0 μM) |  |  |  |  |  |  |
| CCCOC(=O)N1C2CCC1CC(N1CCC3(CC1)CN(C(=O)C1CC1)c1ccc(F)cc13)C2 (stereo not drawn) [compound 389] | 65 to 85 |  | < 55 |  | ++ (activity was measured to be between 0.7 μM and 3.0 μM) | + (activity was measured to be greater than or equal to 4.0 μM) |  |  |  |  |
| O=C(OC1CCC1)N1C2CCC1CC(N1CCC3(CC1)C(=O)Nc1ccccc13)C2 (stereo not drawn) [compound 217] | < 65 | ++ (activity was measured to be between 0.7 μM and 3.0 μM) | < 55 | + (activity was measured to be greater than or equal to 4.0 μM) |  |  |  |  |  |  |
| CCOC(=O)N1CCC(CN2CCC3(CC2)CN(C(C)=O)c2ccc(C)cc23)CC1 [compound 46] | > 85 | +++ (activity was measured to be less than or equal to 0.7 μM) | 55 to 70 | +++ (activity was measured to be less than or equal to 0.1 μM) |  |  |  |  |  |  |
| CC(=O)N(C)[C@H]1CC2(CCN(C3CCN(c4nc(C)ns4)CC3)CC2)c2ccccc21 [compound 479] |  |  |  |  |  |  | > 100 | +++ (activity was measured to be less than or equal to 2.0 μM) | 25 to 100 | ++ (activity was measured to be between 2.0 μM and 5.0 μM) |
| C#CCOC(=O)N1CCC(N2CCC3(CC2)CN(C(C)=O)c2ccc(C)cc23)CC1 [compound 81] | < 65 | ++ (activity was measured to be between 0.7 μM and 3.0 μM) | < 55 | + (activity was measured to be greater than or equal to 4.0 μM) |  |  |  |  |  |  |
| O=C(OCC(F)(F)F)N1C2CCC1CC(N1CCC3(CC1)COc1ccc(F)cc13)C2 (stereo not drawn) [compound 124] | < 65 | +++ (activity was measured to be less than or equal to 0.7 μM) | < 55 | ++ (activity was measured to be between 0.1 μM and 4.0 μM) |  |  |  |  |  |  |
| CCCOC(=O)N1C2CCC1CC(N1CCC3(CC1)COc1ccc(F)cc13)C2 (stereo not drawn) [compound 283] | 65 to 85 | ++ (activity was measured to be between 0.7 μM and 3.0 μM) | 55 to 70 | + (activity was measured to be greater than or equal to 4.0 μM) |  |  |  |  |  |  |
| CCOC(=O)N1C2CCC1CC(N1CCC3(CC1)CN(C(=O)NC(C)C)c1ccc(F)cc13)C2 (stereo not drawn) [compound 296] | 65 to 85 | + (activity was measured to be greater than or equal to 3.0 μM) | 55 to 70 | + (activity was measured to be greater than or equal to 4.0 μM) |  |  |  |  |  |  |
| COCCOC(=O)N1CCC(N2CCC3(CC2)CN(C(C)=O)c2ccc(C)cc23)CC1 [compound 293] | > 85 | ++ (activity was measured to be between 0.7 μM and 3.0 μM) | > 70 | +++ (activity was measured to be less than or equal to 0.1 μM) |  |  |  |  |  |  |
| Cc1nsc(N2CC3(CCN(C4CC5CCC(C4)N5c4nc(C)ns4)CC3)c3ccccc32)n1 (stereo not drawn) [compound 477] |  |  |  |  |  |  | > 100 | +++ (activity was measured to be less than or equal to 2.0 μM) | 25 to 100 | ++ (activity was measured to be between 2.0 μM and 5.0 μM) |
